{
  "source": "patent US20230086703A1",
  "about": "“N-(4-(5-chloropyridin-3-yl)phenyl)-2-(2-(cyclopropanesulfonamido)pyrimidin-4-yl) butanamide derivatives and related compounds as human CTPS1 inhibitors for the treatment of proliferative diseases” (Step Pharma S.A.S., priority 2019, published 2023)",
  "target": "T1, human CTPS1 (Homo sapiens, UniProt P17812)",
  "T1 construct": "FLAG (with GG linker); His8 (with GG linker); purchased Proteros biostructures GmbH",
  "T1 sequence (P17812 1-591)": "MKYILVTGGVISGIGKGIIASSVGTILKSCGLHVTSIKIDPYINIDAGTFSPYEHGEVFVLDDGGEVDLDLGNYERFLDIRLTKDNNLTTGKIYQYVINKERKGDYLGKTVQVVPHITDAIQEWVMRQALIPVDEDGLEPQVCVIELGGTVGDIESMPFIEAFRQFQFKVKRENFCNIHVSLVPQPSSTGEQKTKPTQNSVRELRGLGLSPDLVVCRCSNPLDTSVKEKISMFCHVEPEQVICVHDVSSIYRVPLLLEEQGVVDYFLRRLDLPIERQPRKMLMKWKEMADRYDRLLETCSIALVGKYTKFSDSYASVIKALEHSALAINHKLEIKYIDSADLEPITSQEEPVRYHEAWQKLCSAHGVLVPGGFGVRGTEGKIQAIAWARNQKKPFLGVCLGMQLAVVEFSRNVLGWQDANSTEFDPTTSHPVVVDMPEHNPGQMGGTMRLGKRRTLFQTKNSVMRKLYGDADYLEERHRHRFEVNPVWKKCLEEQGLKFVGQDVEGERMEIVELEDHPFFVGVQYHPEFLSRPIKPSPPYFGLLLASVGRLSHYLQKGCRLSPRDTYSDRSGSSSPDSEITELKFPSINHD",
  "assay": "RapidFire/MS-based enzyme selectivity assay (human CTPS1 versus CTPS2), CTPS1 isoform",
  "type": "biochemical",
  "procedure": "Human CTPS1 Versus CTPS2 Selectivity Assessment by RapidFire/MS Analysis.\nThe enzyme inhibitory activities against each target isoform of interest may be determined for the compounds of the invention using an optimised RapidFire high-throughput mass spectrometry (RF/MS) assay format. RF/MS assays for both human CTPS1 and CTPS2 may be performed in assay buffer consisting of 50 mM HEPES (Merck), 20 mM MgCl2, 5 mM KCl, 1 mM DTT, 0.01% Tween-20, pH to 8.0 accordingly. Human full-length active C-terminal FLAG-His-tag CTPS1 (UniProtKB—P17812, CTPS1[1-591]-[…] (CTPS1[1-591]-SEQ ID NO: 1)) may be obtained from Proteros biostructures GmbH. Human full length active C-terminal FLAG-His-Avi tagged CTPS2 (UniProtKB—Q9NRF8, CTPS2 [1-586]-[…] (CTPS2 [1-586]—SEQ ID NO: 2)) may be obtained from Harker Bio.\nHuman CTPS (1 or 2) protein may be prepared in 1× assay buffer to the final working protein concentration required for the reaction. A 2 uL volume per well of 2×CTPS (1 or 2) protein may be mixed with 40 nL of compound using acoustic (ECHO) delivery and incubated for 10 minutes at 25° C. Each isoform enzymatic reaction may be subsequently initiated by addition of 2 uL per well of a 2× substrate mix in assay buffer. For hCTPS1: ATP (0.3 mM), UTP (0.2 mM), GTP (0.07 mM) and L-glutamine (0.1 mM). For hCTPS2: ATP (0.1 mM), UTP (0.04 mM), GTP (0.03 mM) and L-glutamine (0.1 mM). Each mixture may be incubated for an appropriate amount of time per isoform within the determined linear phase of the reaction at 25° C. A 80 uL volume of stop solution (1% formic acid with 0.5 uM ^13C9-^15N3-CTP in H2O) may be added and the plate immediately heat-sealed and centrifuged for 10 minutes at 4,000 rpm. Following centrifugation, plates may be loaded onto the Agilent RapidFire microfluidic solid phase extraction system coupled to an API4000 triple quadrupole mass spectrometer (RF/MS) for analysis.\nIn all cases, the enzyme converts UTP to CTP. Highly specific and sensitive multiple reaction monitoring (MRM) MS methods may be optimised for the detection of the enzymatic reaction product, CTP, and the stable isotope labelled product standard ^13C9-^15N3-CTP. Readout for data analysis may be calculated as the ratio between the peak area of the product CTP and the internal standard ^13C9-^15N3-CTP. For data reporting, the following equation may be used:\n(R=ratio/readout, P=product signal area, IS=internal standard signal area)\nFor each screening plate, the means of the negative (DMSO) and positive control values were used for the calculation of the respective assay window (S/B) and Z′ values. The median of the respective control values was used for calculation of percent inhibition according to the following equation:\n(I=Inhibition, Rneq=median of negative control readout values, Rpos=median of positive control readout values, Rsample=sample readout value)\nPercentage inhibition was then plotted against compound concentration, and the 50% inhibitory concentration (IC50) was determined from the resultant concentration-response curve.\nFold selectivity between CTPS1 and CTPS2 was subsequently calculated according to the following equation: […]",
  "key": {"[1]": {"settings": "RapidFire/MS IC50 values of CTPS1 and CTPS2, Table 15"}, "[2]": {"settings": "Table 16, human CTPS1 over human CTPS2, RapidFire/MS IC50 values"}, "[3]": {"settings": "RapidFire/MS IC50 values of CTPS1 and CTPS2, Table 17"}},
  "data": [
    {"compound": "CCOc1cncc(-c2ccc(NC(=O)C(F)(CC)c3ccnc(NS(=O)(=O)C4CC4)n3)nc2)n1", "note": "(single isomer, unassigned) [P113, 2-(2-(Cyclopropanesulfonamido)pyrimidin-4-yl)-N-(5-(6-ethoxypyrazin-2-yl)pyridin-2-yl)-2-fluorobutanamide]", "values": [
      {"measurement": "Selectivity (fold selectivity between CTPS1 and CTPS2)", "setting": "[1]", "value": "+ (2-30 fold (+))"}
    ]},
    {"compound": "CCOc1cncc(-c2ccc(C(=O)NCc3csc(NS(=O)(=O)C4CC4)n3)c(F)c2)n1", "note": "[R11, N-((2-(cyclopropanesulfon-amido)thiazol-4-yl)methyl)-4-(6-ethoxypyrazin-2-yl)-2-fluorobenzamide]", "values": [
      {"measurement": "Selectivity (fold selectivity between CTPS1 and CTPS2)", "setting": "[2]", "value": "++ (>30-60 fold (++))"}
    ]},
    {"compound": "CCOc1cncc(-c2ccc(NC(=O)C(C)(OC)c3cncc(NS(=O)(=O)C4CC4)n3)nc2)n1", "note": "(single isomer, unassigned) [P205b, 2-(6-(cyclopropanesulfonamido)pyrazin-2-yl)-N-(5-(6-ethoxypyrazin-2-yl)pyridin-2-yl)-2-methoxypropanamide]", "values": [
      {"measurement": "Selectivity (fold selectivity between CTPS1 and CTPS2)", "setting": "[1]", "value": "++ (>30-60 fold (++))"}
    ]},
    {"compound": "CCOc1cncc(-c2ccc(NC(=O)C(C)(C)c3cncc(NS(=O)(=O)C4CC4)n3)cc2)n1", "note": "[P196, 2-(6-(cyclopropanesulfonamido)pyrazin-2-yl)-N-(4-(6-ethoxypyrazin-2-yl)phenyl)-2-methylpropanamide]", "values": [
      {"measurement": "Selectivity (fold selectivity between CTPS1 and CTPS2)", "setting": "[1]", "value": "+++ (>60 fold (+++))"}
    ]},
    {"compound": "CCC(C(=O)Nc1ccc(-c2cncc(OC(C)C)n2)cn1)c1ccnc(NS(=O)(=O)C2CC2)n1", "note": "(stereo not drawn) [P89, 2-(2-(cyclopropanesulfonamido)pyrimidin-4-yl)-N-(5-(6-isopropoxypyrazin-2-yl)pyridin-2-yl)butanamide]", "values": [
      {"measurement": "Selectivity (fold selectivity between CTPS1 and CTPS2)", "setting": "[1]", "value": "+++ (>60 fold (+++))"}
    ]},
    {"compound": "COCCC(NC(=O)c1ccc(-c2cncc(OC(C)C)n2)cc1F)c1csc(NS(=O)(=O)C2CC2)n1", "note": "(stereo not drawn) [R89, N-(1-(2-(cyclopropanesulfon-amido)thiazol-4-yl)-3-methoxypropyl)-2-fluoro-4-(6-isopropoxypyrazin-2-yl)benzamide]", "values": [
      {"measurement": "Selectivity (fold selectivity between CTPS1 and CTPS2)", "setting": "[2]", "value": "+++ (>60 fold (+++))"}
    ]},
    {"compound": "Cc1cc(-c2cncc(C(F)(F)F)n2)ccc1C(=O)NC(C)(C)c1nc(NS(=O)(=O)C2CC2)sc1C", "note": "[R76, N-(2-(2-(cyclopropanesulfon-amido)-5-methylthiazol-4-yl)propan-2-yl)-2-methyl-4-(6-(trifluoromethyl)pyrazin-2-yl)benzamide]", "values": [
      {"measurement": "Selectivity (fold selectivity between CTPS1 and CTPS2)", "setting": "[2]", "value": "+ (2-30 fold (+))"}
    ]},
    {"compound": "O=C(NC1(c2csc(NS(=O)(=O)C3CC3)n2)CC1)c1ccc(-c2cncc(C(F)(F)F)n2)cc1", "note": "[R84, N-(1-(2-(cyclopropanesulfon-amido)thiazol-4-yl)cyclopropyl)-4-(6-(trifluoromethyl)pyrazin-2-yl)benzamide]", "values": [
      {"measurement": "Selectivity (fold selectivity between CTPS1 and CTPS2)", "setting": "[2]", "value": "+++ (>60 fold (+++))"}
    ]},
    {"compound": "CC(C)(NC(=O)c1ccc(-c2cncc(C(F)(F)F)n2)cc1F)c1csc(NS(=O)(=O)C2CC2)n1", "note": "[R42, N-(2-(2-(cyclopropanesulfonamido)thiazol-4-yl)propan-2-yl)-2-fluoro-4-(6-(trifluoromethyl)pyrazin-2-yl)benzamide]", "values": [
      {"measurement": "Selectivity (fold selectivity between CTPS1 and CTPS2)", "setting": "[2]", "value": "++ (>30-60 fold (++))"}
    ]},
    {"compound": "CCOc1cncc(-c2cnc(NC(=O)C(CC)c3ccnc(NS(=O)(=O)C4CC4)n3)c(F)c2)n1", "note": "(stereo not drawn) [P162, 2-(2-(cyclopropanesulfonamido)pyrimidin-4-yl)-N-(5-(6-ethoxypyrazin-2-yl)-3-fluoropyridin-2-yl)butanamide]", "values": [
      {"measurement": "Selectivity (fold selectivity between CTPS1 and CTPS2)", "setting": "[1]", "value": "++ (>30-60 fold (++))"}
    ]},
    {"compound": "CC(C)(NC(=O)c1ccc(-c2cncc(C(F)(F)F)n2)cc1)c1csc(NS(=O)(=O)C2CC2)n1", "note": "[R51, N-(2-(2-(cyclopropanesulfon-amido)thiazol-4-yl)propan-2-yl)-4-(6-(trifluoromethyl)pyrazin-2-yl)benzamide]", "values": [
      {"measurement": "Selectivity (fold selectivity between CTPS1 and CTPS2)", "setting": "[2]", "value": "++ (>30-60 fold (++))"}
    ]},
    {"compound": "CCOc1cncc(-c2ccc(C(=O)NC(C)c3csc(NS(=O)(=O)C4CC4)n3)c(F)c2)n1", "note": "(stereo not drawn) [R91, N-(1-(2-(cyclopropanesulfon-amido)thiazol-4-yl)ethyl)-4-(6-ethoxypyrazin-2-yl)-2-fluorobenzamide]", "values": [
      {"measurement": "Selectivity (fold selectivity between CTPS1 and CTPS2)", "setting": "[2]", "value": "+++ (>60 fold (+++))"}
    ]},
    {"compound": "CCOc1cncc(-c2ccc(NC(=O)C(C)(C)c3ccnc(NS(=O)(=O)C4CC4)n3)c(F)c2)n1", "note": "[P38, 2-(2-(cyclopropanesulfonamido)pyrimidin-4-yl)-N-(4-(6-ethoxypyrazin-2-yl)-2-fluorophenyl)-2-methylpropanamide]", "values": [
      {"measurement": "Selectivity (fold selectivity between CTPS1 and CTPS2)", "setting": "[1]", "value": "+ (2-30 fold (+))"}
    ]},
    {"compound": "CCOc1cncc(-c2ccc(NC(=O)C3(c4ccnc(NS(=O)(=O)C5CC5)n4)CCOCC3)nc2)n1", "note": "[P115, 4-(2-(Cyclopropanesulfonamido)pyrimidin-4-yl)-N-(5-(6-ethoxypyrazin-2-yl)pyridin-2-yl)tetrahydro-2H-pyran-4-carboxamide]", "values": [
      {"measurement": "Selectivity (fold selectivity between CTPS1 and CTPS2)", "setting": "[1]", "value": "+++ (>60 fold (+++))"}
    ]},
    {"compound": "CCOc1cncc(-c2ccc(NC(=O)C(C)(C)c3ccnc(NS(C)(=O)=O)n3)nc2)n1", "note": "[P76, N-(5-(6-ethoxypyrazin-2-yl)pyridin-2-yl)-2-methyl-2-(2-(methylsulfonamido)pyrimidin-4-yl)propanamide]", "values": [
      {"measurement": "Selectivity (fold selectivity between CTPS1 and CTPS2)", "setting": "[1]", "value": "++ (>30-60 fold (++))"}
    ]},
    {"compound": "CCOc1cncc(-c2ccc(C(=O)NC3(c4csc(NS(=O)(=O)C5CC5)n4)CC3)nc2)n1", "note": "[R80, N-(1-(2-(cyclopropanesulfon-amido)thiazol-4-yl)cyclo-propyl)-5-(6-ethoxypyrazin-2-yl)picolinamide]", "values": [
      {"measurement": "Selectivity (fold selectivity between CTPS1 and CTPS2)", "setting": "[2]", "value": "+++ (>60 fold (+++))"}
    ]},
    {"compound": "CCOc1cncc(-c2ccc(C(=O)NC(CC)c3csc(NS(=O)(=O)C4CC4)n3)c(F)c2)n1", "note": "(racemic) [R62, N-(1-(2-(cyclopropanesulfonamido)thiazol-4-yl)propyl)-4-(6-ethoxypyrazin-2-yl)-2-fluorobenzamide]", "values": [
      {"measurement": "Selectivity (fold selectivity between CTPS1 and CTPS2)", "setting": "[2]", "value": "+++ (>60 fold (+++))"}
    ]},
    {"compound": "CC(C)Oc1cncc(-c2ccc(C(=O)NC(C)(C)c3cncc(NS(=O)(=O)C4CC4)n3)c(F)c2)n1", "note": "[P221, N-(2-(6-(cyclopropanesulfonamido)pyrazin-2-yl)propan-2-yl)-2-fluoro-4-(6-isopropoxypyrazin-2-yl)benzamide]", "values": [
      {"measurement": "Selectivity (fold selectivity between CTPS1 and CTPS2)", "setting": "[1]", "value": "+ (2-30 fold (+))"}
    ]},
    {"compound": "CCOc1cncc(-c2ccc(NC(=O)C3(c4ccnc(NS(=O)(=O)C5CC5)n4)CCC(F)(F)CC3)nc2)n1", "note": "[P242]", "values": [
      {"measurement": "Selectivity (fold selectivity between CTPS1 and CTPS2)", "setting": "[3]", "value": "+++ (>60 fold (+++))"}
    ]},
    {"compound": "CCOc1cncc(-c2ccc(NC(=O)C3(c4ccnc(NS(=O)(=O)C5CC5)n4)CCC4(CC3)OCCO4)nc2)n1", "note": "[P244, 8-(2-(cydopropanesulfonamido)pyrimidin-4-yl)-N-(5-(6-ethoxypyrazin-2-yl)pyridin-2-yl)-1,4-dioxaspiro[4.5]decane-8-carboxamide]", "values": [
      {"measurement": "Selectivity (fold selectivity between CTPS1 and CTPS2)", "setting": "[3]", "value": "+++ (>60 fold (+++))"}
    ]},
    {"compound": "CCOc1cncc(-c2ccc(NC(=O)Cc3ccnc(NS(=O)(=O)C4CC4)n3)cc2)n1", "note": "[P18, 2-(2-(cyclopropanesulfonamido)pyrimidin-4-yl)-N-(4-(6-ethoxypyrazin-2-yl)phenyl)acetamide]", "values": [
      {"measurement": "Selectivity (fold selectivity between CTPS1 and CTPS2)", "setting": "[1]", "value": "++ (>30-60 fold (++))"}
    ]}
  ]
}
